Experimental data reported in patent US20110045076A1, “LINEAR ORDER RELEASE POLYMER” (priority 2008, published 2011).

Key:
Type in all cases: physicochemical
[1] = In vitro release of dapivirine from PU rods into liposome dispersions; conditions: 5 mg/g PU rods
Procedure: It is believed that vaginally delivered lipophilic NNRTI's partition into the lipid bilayer of vaginal epithelial cells.^14,21 Therefore, additional release studies were performed using 100 nm liposome dispersions in pH 4.2 and pH 7.6 buffers as biorelevant sink conditions for 1 week. These pH conditions cover the pH range observed vaginally. Liposome dispersions were synthesized by dissolving egg PC in CHCl3 followed by solvent removal under vacuum. The dried egg PC cake was dispersed in either pH 4.2 (25 mM acetate buffer containing 0.02% sodium azide and osmolarity adjusted to 310 mOsm/kg with NaCl) or pH 7.6 (25 mM phosphate buffer containing 0.02% sodium azide and osmolarity adjusted to 310 mOsm/kg with NaCl) followed by extrusion through a 100 nm membrane (LiposoFast™, Avestin, Ottawa, Canada). The concentration of liposome was 10 mg/mL. Prior to conducting the release study, liposome dispersions were characterized for particle size and zeta potential in a Zetasizer (nano ZS90, Malvern Instruments, Malvern Worcestershire, UK). A third sink condition for comparison was 25:75 v/v i-prOH:water. Approximately 0.5 mm length segments of dapivirine loaded (5 mg/g) PU rods were incubated with 0.5 mL of sink solution in 37° C. water bath shaking at 64±2 rpm. Controls used were dapivirine loaded PU rods suspended with pH 4.2 and pH 7.6 buffers without liposomes and blank PU (no dapivirine) segments in liposome dispersions in pH 4.2 and pH 7.6 buffers. Sinks were replaced and quantified for dapivirine content at frequent time points. HPLC quantification of release in sink samples of liposome dispersions was performed after 1:1 dilution with i-prOH to disrupt the dispersion.

[2] = Stability of dapivirine under extrusion conditions (heating with LC/MS and NMR, DSC, extraction)
Procedure: A series of experiments were conducted to confirm that dapivirine was stable in PU matrix in the extrusion process. First, the thermal stability of dapivirine at the extrusion temperature was examined and analyzed for its non-degradability as follows: dapivirine was heated at 185° C. isothermally for 2 h under air atmosphere and ^1H and ^13C NMR spectra were recorded (Mercury 400 MHz spectrometer, Varian) for the heated and unheated dapivirine. Furthermore, LC/MS analysis was performed on the heated sample and compared to non-heated controls. The MS instrumentation consisted of Micromass Quattro II Triple Quadruple Mass Spectrometer, Waters, Milford, Mass.
Second, a differential scanning calorimetric (DSC) scan was obtained on dapivirine from 25° C. to 230° C. at a heating rate of 10° C./min under air atmosphere with a flow rate of 40 mL/min (Model DSC821e, Mettler Toledo, Columbus, Ohio). To further confirm the stability of dapivirine in the presence of PU under extrusion conditions, DSC analyses were carried out for PU, dapivirine, and PU films loaded with dapivirine at a concentration of 200 mg/g. The high concentration of dapivirine was selected to enable detection of potential exothermic degradation peaks. The DSC spectrum was collected from 25° C. to 230° C. at the heating rate of 10° C./min as well as at an isothermal condition (175° C. for 10 minutes).
Finally, dapivirine was extracted and quantified from extruded rods and PU pellets (both SC and MM) prior to extrusion. The test samples (100 mg of ring segments or pellets) were dissolved in 2 mL of chloroform in a 50 mL centrifuge tube in triplicate followed by precipitation of the PU by addition of 25 mL of methanol using a volumetric flask. The polymer was separated by centrifugation (1600 RCF, 5 min) and the supernatant was quantified for dapivirine content by HPLC. The caps of the centrifuge tubes were closed tightly and wrapped with Teflon tape during the process to minimize evaporation. The efficiency of the extraction of dapivirine from the PU matrix using this method was determined by quantifying the extracted dapivirine content from controls of blank PU pellets (100 mg) to which known amount of dapivirine was added. The three controls used in triplicate were 1) 100 mg of PU pellets with 2 mg of dapivirine 2) 100 mg of PU pellets with 1 mg of dapivirine and 3) 100 mg of PU pellets with 0.25 mg of dapivirine. The mixtures of PU pellets and dapivirine were then subjected to the same precipitation process and dapivirine quantification as above. A linear calibration curve generated from standards of dapivirine in isopropanol (i-prOH) was utilized for quantification of dapivirine content from extracted samples.

[3] = In vitro release of dapivirine from PU rings (SC and MM) in 25:75 i-prOH:water; conditions: for average release rate: rings, two weeks
Procedure: (§1) The release profile of dapivirine was measured from PU-SC rods for a month after which the release kinetics from rings was evaluated for two weeks to determine the correlation of drug release rate from rods to that from rings. This may enable use of rods in place of rings for release kinetics evaluation thereby minimizing the scale of materials such as ring materials, quantity of drugs and volume of sink solutions required for release studies in case of monolithic IVRs. About 2 cm length segments were cut from the solid cross-sectional dapivirine loaded PU SC rods. The dimensions (length and diameter) and weight of each segment were recorded. The segments were incubated with 5 mL 25:75 v/v i-prOH:water as the sink condition in 20 mL septa covered vials at 37° C. in a water bath shaker set at 64±2 rpm. The sink was replaced with fresh co-solvent every 24±0.5 h for 30 days. HPLC analyses were performed every 2 to 5 days and the cumulative release was calculated by integrating the area under the curve using Kaleidagraph software (Synergy Software, Reading, Pa.). The release study for each loading was performed on triplicate samples. At the end of 30 days, the segments were wiped dry and the masses and dimensions of the segments were recorded. Similarly, dapivirine release kinetics were measured from rings (20 mg/g SC, 2.5 mg/g SC, 20 mg/g MM and 2.5 mg/g MM) incubated with 50 mL of 25:75 v/v i-prOH:water mixture as sink condition in 125 mL Erlenmeyer flasks with rubber septa […].
At the end of each release study, the swelling ratio was calculated by using the following equation
[formula] • where • Q=swelling ratio • Mi=mass of ring or rod segments before the release study • Mf=mass ring or rod segments after the release study

[4] = In vitro release of dapivirine from PU-SC rods in 25:75 i-prOH:water
Procedure: as §1, with “The segments were incubated with 5 mL 25:75 v/v i-prOH:water as the sink condition in 20 mL septa covered vials at 37° C. in a water bath shaker set at 64±2 rpm. The sink was replaced with fresh co-solvent every 24±0.5 h for 30 days.” left out, “The release study for each loading was performed on triplicate samples.” left out
At the end of each release study, the swelling ratio was calculated by using the following equation […]

cumulative release over time ([1]; liposome dispersions, one week): linear relationship with time
dapivirine release in buffer controls ([1]; pH 4.2 and pH 7.6 buffers without liposomes): below the detection limit
release kinetics relative to 25:75 i-prOH:water sink (slopes of linear fits) ([1]; pH 4.2 liposome dispersion): 22 times
release kinetics relative to 25:75 i-prOH:water sink (slopes of linear fits) ([1]; pH 7.6 liposome dispersion): 1.5 times
degradation in DSC thermogram of dapivirine ([2]; 25° C. to 230° C., 10° C./min, air): no detectable degradation
degradation of dapivirine (LC/MS and NMR, heated vs non-heated) ([2]; 185° C. isothermally for 2 h under air): no detectable degradation
degradation of dapivirine in PU under extrusion conditions (DSC) ([2]; PU films loaded with 200 mg/g, ramp 25 to 230° C. and isothermal 175° C., extrusion 165 to 175° C.): no detectable degradation
dapivirine content recovered from extruded rods vs SC or MM pellets prior to extrusion ([2]; extraction, HPLC, p value>0.05, unpaired t-test): not significantly different
solubility of dapivirine in PU matrix ([2]; from absence of the 220° C. melting endotherm in DSC of PU films loaded at 200 mg/g): > 200 mg/g
average flux from rings (SC) higher than from rods (SC) ([3]; 2.5 mg/g SC): 18%
average flux from rings (SC) higher than from rods (SC) ([3]; 20 mg/g SC): 12%
release kinetics of SC rings vs MM rings ([3]; p>0.05, unpaired two tailed t-test): no significant difference
release rate (order) ([3]; rings SC and MM, 25:75 i-prOH:water, 37° C.): zero order release rate
average release rate ([3]; 2.5 mg/g dapivirine loading, 25:75 i-prOH:water, 37° C.): 64 ± 1 µg/day
average release rate ([3]; 20 mg/g dapivirine loading, 25:75 i-prOH:water, 37° C.): 473 ± 36 µg/day
release kinetics (order) ([4]; all loadings (2.5-20 mg/g), 25:75 i-prOH:water, 37° C., one month): zero order release kinetics
loaded dapivirine released ([4]; at the end of 30 days): about 20%
SMILES: Cc1cc(C)c(Nc2ccnc(Nc3ccc(C#N)cc3)n2)c(C)c1 [dapivirine, 4-[[4-[(2,4,6-trimethylphenyl)amino]pyrimidin-2-yl]amino]benzonitrile]
